Results: patent US11540999B2, “Deodorant compositions” (The Procter & Gamble Company, priority 2017, dated 2023)
Counter-ions that a name gives are not always drawn.

What follows are compounds tested on two key underarm bacteria strains (assay: Raw material microbial inhibition, verbal summary of Table 2). Settings: both strains of Table 2, in words.
Assay type: cell-based
Method: The data in Table 2 above was generated with the following test method.
3. Microbial Strains • Staphylococcus epidermidis (clinical isolate) • Corynebacterium mucofaciens (clinical isolate)
In row A of a 96 deep well plate pipette 180 ul of sterile BHI with 1% Tween 80 as a negative growth control. All other wells receive 180 ul of inoculum. From the master plate introduce 20 ul to the corresponding row in the test plate using an 8-channel pipette. Loaded plates are placed on a plate shaker in the 37° C. incubator and incubated overnight. The next day read the O.D. 600 on a plate reader. The MIC is the last well from the right that has no bacterial growth.

Row | SMILES | performance against the bacteria as raw materials
1 | O=C([O-])[O-].[Ca+2] [Ca Carbonate, calcium carbonate] | performing moderately well
2 | CC(C)=CCCC(C)=CC=O [Citral] | performing well
3 | COC(=O)CCC(=O)OC [Dimethyl Succinate] | performing well
4 | C=CCc1ccc(O)c(OC)c1 [Eugenol] | performing well
5 | C=CCCCCCCCCC(=O)N[C@@H](Cc1ccccc1)C(=O)O [Sepiwhite] | performing well
6 | CCOC(=O)CC(O)(CC(=O)OCC)C(=O)OCC [Triethyl citrate] | performing well
7 | Cc1cc(CC(C)CC(C)(C)C)n(O)c(=O)c1.NCCO (stereo not shown) [piroctone olamine] | perform particularly well
